# According to patent US11524021B2, “Use of ginsenoside M1 for manufacturing medicament for treating oral cancer” (priority 2018, dated 2022):
# Key:
# Format in all cases: cell-based
# [1] = system: human oral cancer OECM-1 cells; assay: Migration of OECM-1 cells, wound healing assay; conditions: 18 h
# Protocol: FIGS. 5A-5B show ginsenoside M1 reduced the migration ability of human oral cancer cells. Human oral cancer cell line SAS cells (FIG. 5A) or OECM-1 cells (FIG. 5B) were cultured in 6-cm dish until the cells reached 100% confluence forming a monolayer. A clear zone was created by scratching using a sterile 200-μl pipette tip. The cells were incubated for 24 h (SAS cells) or 18 h (OECM-1 cells) with ginsenoside M1 (5˜10 μg/ml) or (0.1% DMSO). The migration distance was measured and compared to the vehicle-control cells. The data were expressed as mean±SD; n=3. *** indicates a significant difference at the level of p<0.001, compared to vehicle-control cells. (One-way ANOVA with Dunnett's multiple comparisons test).
# The cell migration ability was measured by wound healing assay. Plate 5×10^6 human oral cancer SAS cells or OECM-1 cells per 6-cm dish in 2 ml of culture medium and were grown overnight at 37° C. in a 5% CO2 incubator until the cells reached 100% confluence forming a monolayer. We used a sterile 200-μl pipette tip to create a scratched clear zone on the culture dish, and the wounds photographed by a phase contrast microscope as the baseline. […] The data were expressed as mean±SD; n=3. *** indicates a significant difference at the level of p<0.001, compared to vehicle-control cells. […]
# [2] = system: human oral cancer cells SAS; assay: Viability of human oral cancer SAS cells, Trypan blue exclusion; conditions: 5˜20 μg/ml, 24 h
# Protocol: Human oral cancer cell line SAS cells (FIG. 1A) or OECM-1 cells (FIG. 1B) were incubated for 24 h with ginsenoside M1 (5˜20 μg/ml), ginsenoside Rh2 (5˜20 μg/ml) or vehicle (0.1% DMSO). The live cell numbers were counted by Trypan blue exclusion method. The data were expressed as mean±SD; n=3. *, ** and *** indicate a significant difference at the level of p<0.05, p<0.01 and p<0.001, respectively, compared to vehicle-control cells. (One-way ANOVA with Dunnett's multiple comparisons test).
# Plate 5×10^5 human oral cancer cells SAS per 6-cm dish in 2 ml of culture medium and were grown overnight at 37° C. in a 5% CO2 incubator. The cells were incubated for 24 h with ginsenoside M1 (5˜20 μg/ml), ginsenoside Rh2 (5˜20 μg/ml) or vehicle. Each group contains a final DMSO concentration of 0.1%. Thereafter, the cell numbers were counted by Trypan blue exclusion method. […] The data were expressed as mean±SD; n=3. *, ** and *** indicate a significant difference at the level of p<0.05, p<0.01 and p<0.001, respectively, compared to vehicle-control cells. (One-way ANOVA with Dunnett's multiple comparisons test).
# [3] = system: human oral cancer cells OECM-1; assay: Cell cycle distribution, PI staining by flow cytometry; conditions: 10˜20 μg/ml, 24 h
# Protocol: Human oral cancer cell line OECM-1 cells were incubated for 24 h with ginsenoside M1 (10˜20 μg/ml), 50 μM cistaplatin (CDDP) or vehicle (0.1% DMSO). (FIG. 3A) The apoptotic DNA breaks was assayed by terminal deoxynucleotidyl transferase dUTP nick end labeling (TUNEL) assay using flow cytometry. (FIG. 3B) The cell cycle distribution was determined by PI staining using flow cytometry. (FIG. 3C) The apoptosis level was measured by PI/Annexin V double staining assay using flow cytometry. (FIG. 3D) The activation levels of caspase-9 and caspase-3 were measured by detecting the degradation of pro-caspase-9 and pro-caspase-3 using Western blotting. […] (One-way ANOVA with Dunnett's multiple comparisons test).
# To gain further insight into the mode of action of ginsenoside M1, three assays targeting hallmarks of apoptosis, namely (1) the apoptotic DNA breaks assayed by terminal deoxynucleotidyl transferase dUTP nick end labeling (TUNEL) assay, (2) the cell cycle assayed by flow cytometry after propidium iodide (PI)-staining nuclei, (3) the PI/Annexin V double staining assay, and (4) caspase activation were performed. Plate 1×10^6 human oral cancer cells OECM-1 per 6-cm dish in 2 ml of culture medium and were grown overnight at 37° C. in a 5% CO2 incubator. The cells were incubated for 24 h with ginsenoside M1 (10˜20 μg/ml), 50 μM cistaplatin (CDDP) or vehicle. Each group contains a final DMSO concentration of 0.1%. Thereafter, three assays were performed. […] The cells in sub-G1 phase increased after treatment with ginsenoside M1 and CDDP. (FIG. 3B). […] The data were expressed as mean±SD; n=3. ** and *** indicate a significant difference at the level of p<0.01 and p<0.001, respectively, compared to vehicle-control cells. (One-way ANOVA with Dunnett's multiple comparisons test).
compound,measurement,setting,value
"CC(C)=CCC[C@](C)(O[C@@H]1OC(CO)[C@@H](O)[C@@H](O)C1O)[C@H]1CC[C@]2(C)C1[C@H](O)CC1[C@@]3(C)CC[C@H](O)C(C)(C)C3CC[C@]12C (stereo partly drawn) [ginsenoside M1, 20-O-β-D-glucopyranosyl-20(S)-protopanaxadiol]",migration ability of OECM-1 cells,[1]; 5 μg/ml,significantly inhibited
same,migration ability of OECM-1 cells,[1]; 10 μg/ml,significantly inhibited
same,cell numbers of human oral cancer SAS cells,[2],dose-dependently inhibited
same,cells in sub-G1 phase,[3],increased
same,cells in G1 phase,[3]; vs control cells,increased in a concentration-dependent manner
same,percentage of cells in S and G2/M phase,[3]; vs control cells,decreasing
